Reference: patent US20250281474A1, “PHARMACEUTICAL COMPOSITION FOR TREATING COGNITIVE DECLINE OR FOR TREATING OVERWEIGHTNESS OR OBESITY” (University of the Ryukyus, priority 2021, published 2025)

Experiments:
Format in all cases: in vivo, mouse
[1] = system: HFD mice; test: Golgi staining of hippocampus, HFD mice; settings: HFD mice with PER
Excerpt: Coronal sections of mouse brains from Bregma −0.94 mm to Bregma −4.04 mm (5 mm wide, including the entire hippocampus from dorsal to ventral, medial to lateral) were fixed with 4% paraformaldehyde for 2 days, and then stained with the Golgi Cox staining system (FD Rapid GolgiStain™ Kit, MD 21041, USA). The impregnated tissues were cut into 100 μm sections and counterstained with crystal violet, and the total number of 15 μm spines on the apical dendrites of CA1 and DG and the percentage of morphologic spines (thin, stubby, mushroom) were examined using an Axio Observer Z1 (Carl Zeiss, Germany). Another set of paraformaldehyde-fixed 5 mm wide coronal sections of the brain, including the entire hippocampus, were processed using the passive CLARITY technique (PACT) (62) and examined through Lightsheet Z.1 (Carl Zeiss, Germany) using a 10× clear objective lens, and 3D images of Thy1-YFPH transgenic mice (the Jackson Laboratory, stock number: 003709, strain name: B6.Cg-Tg.(Thy1-YFP)16Jrs/J) (63, 64), HFD-fed mice, and whole hippocampus of the HFD-fed mice with PER treatment. were acquired respectively. Maximum intensity projection images were acquired along the Z dimension, time dimension, and channel dimension to create an output image with the pixel containing the maximum value for all images in the stack at a particular pixel position. […]

[2] = system: AMPAR subunits GluA1-4 mRNA; test: qRT-PCR of AMPAR/NMDAR subunits in hippocampal regions, Ca2+ permeability index
Protocol: After preparing and collecting hippocampal slices, CA1, CA2, CA3, DG, and EC regions were separated from hippocampal slices using a dissection knife from […] background mice and ob/ob mice, respectively. The CA1, CA2, CA3, DG, and EC regions of mice were separated and immediately lysed in disposable homogenization tube BioMasher2 (trademark) (Nippi, Tokyo, Japan) using 0.5 mL of TRIzol RNA isolation reagent (Thermo Fisher Scientific, Wilmington, DE). Total RNA was individually extracted from each region according to the remaining protocol of the TRIzol RNA isolation reagent provided by the manufacturer (Thermo Fisher Scientific, Wilmington, DE). 1 μg of total RNA was reverse transcribed using PrimeScript RT Reagent Kit (Takara, Shiga, Japan). An aliquot of the obtained cDNA was diluted 1:10 and added to a master mix of TB Green Premix ExTaq (Takara, Shiga, Japan), and real-time PCR was performed using a 7500 Fast Real-Time PCR system (Applied Biosystems, Foster City, CA, USA) according to the manufacturer's instructions. The conditions for real-time PCR were as follows. 40 cycles of 95° C. for 30 seconds, then 95° C. for 5 seconds and 60° C. for 34 seconds. The fluorescence intensity was measured for each annealing step and the threshold cycle time was determined using 7500 software. In addition, relative expression levels of β-actin were normalized to respective controls (vehicle group). The relative expression level of the target gene in each sample was determined using a standard curve and further normalized to the expression level of R-actin of the same sample. The sequences of primers and probes for these genes are shown in Supplemental Table 2. The “ratio of GluA2 mRNA amount/(GluA1+GluA3+GluA4 mRNA amount” was used as a Ca^2+ permeability index.
GluA2 is edited at the Q/R site within the reentry M2 membrane loop region by adenosine deaminase (ADAR2), which acts on RNA type 2 involved in editing double-stranded RNA from adenosine (A) to inosine (I) (review, refer to 15, 16 and 17). Attempts were made to determine real-time quantitative reverse transcription polymerase chain reaction (qRT-PCR), subunit composition of AMPAR and NMDAR. Total RNA in hippocampal subregions (CA1, CA3, DG, EC) was separated, and quantitative analysis of mRNA of GluA1, GluA2, GluA3, and GluA4 for AMPAR, and GluN1, GluN2A, GluN2B, and GluN2C for NMDAR was performed by qRT-PCR. […] Based on the mRNA amount of each subunit, the ratio of GluA2 to other GluA subunits (FIG. 2B) was determined. The ratio was defined as a Ca^2+ permeability index.

[3] = Appearance and body weight of ob/ob mice; settings: ob/ob mice fed perampanel-containing diet 5 mg/kg body weight from 8 to 12 weeks of age
Protocol: ob/ob mice and their littermates with wild-type traits were obtained as the offspring of ob+/− mice. These mice were fed freely and some of the ob/ob mice were fed perampanel-containing diet at 5 mg/kg body weight from 8 to 12 weeks of age. The appearance and body weight of these mice were compared at 12 weeks of age.

In the case of `N#Cc1ccccc1-c1cc(-c2ccccn2)cn(-c2ccccc2)c1=O` [PER, 3-(2-cyanophenyl)-5-(2-pyridyl)-1-phenyl-1,2-dihydropyridine-2-one], the “spine maturity in DG” value [1] is reported as “immature spines became mature”, the “Ca2+ permeability index CA1” value ([2]; GluA2 mRNA/(GluA1+GluA3+GluA4 mRNA), HFD-fed mice with PER, CA1, N=5) is reported as 0.29 ± 0.11 (N = 5) and the “Ca2+ permeability index CA3” value ([2]; GluA2 mRNA/(GluA1+GluA3+GluA4 mRNA), HFD-fed mice with PER, CA3, N=5) is reported as 0.26 ± 0.10 (N = 5). The “Ca2+ permeability index DG” value ([2]; GluA2 mRNA/(GluA1+GluA3+GluA4 mRNA), HFD-fed mice with PER, DG, N=5) was 0.22 ± 0.06 (N = 5), the “Ca2+ permeability index EC” value ([2]; GluA2 mRNA/(GluA1+GluA3+GluA4 mRNA), HFD-fed mice with PER, EC, N=5) was 0.30 ± 0.05(N = 5) and the “Ca2+ permeability index via CA1, CA3, DG, EC (reduced by HFD)” value ([2]; HFD-fed mice, PER administration, N=5) was “returned to CD-fed mouse levels”. For the same compound, the “GluA2 mRNA expression in CA1 (qRT-PCR)” value ([2]; mice fed HFD with PER, p<0.05) was “significant increase” and the “overweight / appearance at 12 weeks of age” value [3] was “overweight was prevented”.
